Literature values as cited in patent publication US20030069214A1, “Process for preparing saponin compounds” (priority 2001, published 2003).

Legend:
[1] = system: broad spectrum of malignant tumor cells; conditions: Bioorg. Med. Chem. Lett., 7, 633, 1997
normal cells = normal cells in vitro; Bioorg. Med. Chem. Lett., 7, 633, 1997

In the case of `COc1ccc(C(=O)O[C@H]2[C@H](O[C@@H]3[C@@H](OC(C)=O)[C@H](O[C@H]4C[C@H]5[C@@H]6CC=C7C[C@@H](O)CC[C@]7(C)[C@H]6CC[C@]5(C)[C@@]4(O)[C@H](C)C(=O)CCC(C)C)OC[C@@H]3O)OC[C@@H](O)[C@@H]2O)cc1` [OSW-1], the “toxicity against malignant tumor cells” value [1] is listed as “highly toxic” and the “toxicity to normal cells” value (normal cells) is listed as “little toxicity”.
